Patent US20260216189A1, “TOPICAL COMPOSITIONS CONTAINING A JANUS KINASE INHIBITOR” (Zoetis Services LLC, priority 2023, published 2026)

Legend:
[1] = tested on: HDM challenge site (excoriation lesions and erythema); test: house dust model (HDM) challenge, topical treatment of beagle dogs; colorimeter erythema and lesion scores; type: in vivo; details: for Post challenge total lesion scores compared to the saline group: treatment groups vs saline group
Description: (§1) The pharmacokinetics and pharmacodynamics (PK/PD) of orally dosed oclacitinib (0.4-0.6 mg/kg) is well understood. […] An oral 14C-oclacitinib study determined that a single 0.4 mg/kg dose achieved a mean skin concentration of 212 ng equivalents/gram of tissue. A house dust model (HDM) was used to assess the efficacy of the compositions described herein. The topical HDM challenge results in excoriation lesions and erythema at the challenge site. In one study, placebo (saline, TO1), triamcinolone acetonide 0.15 mg/mL (T02), oclacitinib maleate 7.5 mg/mL (T03) and oclacitinib maleate 10 mg/mL (T04) were topically administered to beagle dogs (8/group). The weights of drug in T02-T04 were freebase amounts.
Daily assessments were observed through Day 41. Colorimeter measurements provided quantified erythema scores. […] Lesions were observed and scored based on severity of erythema, papules and excoriations at the challenge site.

[2] = in vivo, po, 0.4 mg/kg
Description: as §1
Systemic plasma concentrations and skin concentrations 24 hours post dose were assessed for multiple compositions of the invention in a number of PK studies; including compositions with oclacitinib or oclacitinib maleate with API concentrations ranging from 1-10 mg/mL oclacitinib. […] The oral 14C-oclacitinib study determined that a 0.4 mg/kg oral dose of oclacitinib achieved a mean skin concentration of 212 ng equivalents/gram. […]

[3] = PK studies of topical compositions: systemic plasma and skin concentrations, single and repeat dose; type: in vivo
Description: Systemic plasma concentrations and skin concentrations 24 hours post dose were assessed for multiple compositions of the invention in a number of PK studies; including compositions with oclacitinib or oclacitinib maleate with API concentrations ranging from 1-10 mg/mL oclacitinib. The compositions tested to date have shown prolonged absorption that lasts at least 72 hours following a single dose and low topical bioavailability of less than 10% with single dose skin concentrations at least 20-80 times that observed in the oral single dose ^14C study. The oral 14C-oclacitinib study determined that a 0.4 mg/kg oral dose of oclacitinib achieved a mean skin concentration of 212 ng equivalents/gram. Permeation and penetration studies with compositions comprising a glycol, glycol ether and DMSO achieved single dose skin concentrations greater (28.4-54.5 μg/g) than that concentration achieved following oral administration, as mentioned above, and well above the reported oclacitinib IC50's for pro-inflammatory and pruritogenic cytokines.
The rate and amount of topical absorption can be a non-linear function of the API concentration of the composition. The topical compositions of the invention minimized systemic plasma oclacitinib concentrations while maintaining high skin concentrations. […] The studies to date and formulations described herein have shown that the compositions deliver skin concentrations greater than those observed with oral dosing. […] The topical single dose bioavailability is low, less than 5% when administered to an area that limits oral exposure from licking. […] Formulations with a lower oclacitinib concentration had lower systemic exposures.

[4] = subsequent study, 2-3 sprays of topical solution, skin concentrations; type: in vivo; details: 2.5-10 mg/mL, about 0.25 to 0.5 mL topical
Description: In a subsequent study, animals received 2.5-10 mg/mL oclacitinib by applying 2-3 sprays for a total of about 0.25 to 0.5 mL of the topical solution to an area of skin.

IL-31 induced itch = details: orally dosed oclacitinib (0.4-0.6 mg/kg); cited from earlier work

mean skin concentration [2]	24-hour post dose skin concentrations following repeat dosing, fold higher ([3]; across study comparisons, repeat vs single dosing)	bioavailability ([3]; plasma, topical, administered to an area that limits oral exposure from licking)	PK following topical administration, maleate vs freebase formulations ([3]; topical)	skin concentrations of oclacitinib [4]	Molecule	erythema reduction compared to saline (colorimeter) ([1]; 7.5 mg/mL topical, Day 36 (P=0.0993))	area under the curve (AUC) of total lesion scores compared to saline ([1]; 10 mg/mL (p<0.08))	erythema reduction compared to saline (colorimeter) ([1]; 10 mg/mL topical, Days 27, 28, and 36 (p≤0.0948))	lesion score reduction after the dosing period ended, versus other treatment groups ([1]; after the 28 day dosing period, observation through Day 41)	erythema reduction compared to saline (colorimeter) ([1]; both concentrations (7.5 and 10 mg/mL), topical once daily, after approximately 1 month of dosing)	Post challenge total lesion scores compared to the saline group [1]	lesion score reduction compared to saline ([1]; spray 7.5 mg/mL, Days 4, 7, 11, 26, 27, 30, and 39)	lesion score reduction compared to saline ([1]; spray 10 mg/mL, Days 7-11, 26, 30, and 32-34)	accumulation in skin and plasma ([3]; following multiple daily administrations)	systemic levels ([3]; following multiple daily doses)	systemic plasma concentrations: absorption and terminal phase ([3]; single and repeat dose studies)	Plasma concentrations effective in reducing IL-31 induced itch (IL-31 induced itch)	lesion score reduction compared to saline ([1]; triamcinolone 0.15 mg/mL, Day 35)	lesion score reduction compared to saline ([1]; triamcinolone 0.15 mg/mL, Days 4, 8, 10, 11)	erythema reduction compared to saline (colorimeter) ([1]; triamcinolone spray 0.15 mg/mL, Days 12, 14, 19, 24-26, 28-33, and 35-41 (P≤0.0912))
212 ng equivalents/gram	at least 5 times	< 5%	comparable	acceptable skin concentrations	CNS(=O)(=O)C[C@H]1CC[C@H](N(C)c2ncnc3[nH]ccc23)CC1 [oclacitinib, N-methyl-1-{trans-4-[methyl (7H-pyrrolo[2,3-d]pyrimidin-4-yl)amino]cyclohexyl}-methanesulfonamide]	significantly greater reduction in erythema	significantly lower	significantly greater reduction	continued to demonstrate significant reduction in lesion scores	significant erythema reductions	significantly higher	significantly greater lesion score reductions	significantly greater lesion score reductions	Accumulation in skin and plasma was observed	at a concentration that has shown efficacy in reducing IL-31 induced itch	prolonged absorption with the terminal phase not evident 10 days post dose	greater than 12 ng/ml			
					CC1(C)O[C@@H]2C[C@H]3[C@@H]4CCC5=CC(=O)C=C[C@]5(C)[C@@]4(F)[C@@H](O)C[C@]3(C)[C@]2(C(=O)CO)O1 [triamcinolone, triamcinolone acetonide]						significantly higher							significantly lesser reduction	significantly greater reductions in lesion scores	significantly less reduction in erythema
			comparable		oclacitinib maleate															
